Consider six compounds from patent US12466831B2, “Substituted amino triazolopyrimidine and amino triazolopyrazine adenosine receptor antagonists, pharmaceutical compositions and their use” (Merck Sharp & Dohme LLC, priority 2018, dated 2025).

Experiment [1] addresses T1, human A2a adenosine receptor (Homo sapiens, UniProt P29274).
T1 construct: purchased Perkin Elmer RBHA2aM400UA; host or cells: HEK293 or CHO cells (recombinant expression)
Briefly: A2a binding affinity using SPA, Method (B). To be noted: Method (B): [3H]SCH58261 SPA, membranes expressing human A2a. The source says: Method (A) describes the procedure used to measure A2a binding affinity using radioligand binding. Method (B) describes the procedure used to measure A2a binding affinity using SPA technology. The method used to measure A2b binding affinity is also described below. The method used to determine the A2a IC50 value reported for each compound in the table is indicated next to the reported value. The A2b IC50 value measured using the A2b binding affinity assay is shown in the table next to the compound under the corresponding A2a value.
The A2a receptor affinity binding assay measured the amount of binding of a tritiated ligand with high affinity for the A2a adenosine receptor to membranes made from HEK293 or CHO cells recombinantly expressing the human A2a adenosine receptor, in the presence of varying concentrations of a compound of the invention. The data were generated using either filtration binding or a homogenous scintillation proximity assay (SPA).
Method (B): Measurement of A2a Binding Affinity Using SPA
Binding affinity using SPA was conducted as follows. Test compounds (50 nL) were dispensed into individual wells of a 384-well OptiPlate™ well (Perkin Elmer) by Echo® acoustic liquid transfer (Labcyte). 20 μL of 1.25 nM [^3H] SCH58261 ((7-(2-phenylethyl)-5-amino-2-(2-furyl)-pyrazolo-[4,3-e]-1,2,4-triazolo[1,5-c]pyrimidine)) in DPBS assay buffer (Dulbecco's phosphate buffered saline without calcium and magnesium, ThermoFisher Scientific, Cat. No. A1285601) supplemented with 10 mM MgCl2 was added. A2a receptor-expressing membranes were incubated with 20 μg/mL adenosine deaminase (Roche, Cat. No. 10 102 105 001) for 15 minutes at room temperature. The receptor-expressing membranes were then combined with wheat germ agglutinin-coated yttrium silicate SPA beads (GE Healthcare, Cat. No. RPNQ0023) in a ratio of […] (w/w) and incubated for 30 minutes at room temperature. 30 μL of the membrane/bead mixture (0.25 μg and 25 μg per well respectively) were added to the 384-well OptiPlate™ well. To define total and non-specific binding, wells containing 1% DMSO or 1 μM CGS15943 (Tocris Bioscience, Cat. No. 1699) respectively were also included in the experiment. The plate was incubated for one hour at room temperature with agitation. The assay plate was then incubated for an hour to allow the beads to settle before data were collected using a TopCount® (Perkin Elmer) scintillation counter. After normalization to total and non-specific binding, the percent effect at each compound concentration was calculated. The plot of percent effect versus the log of compound concentration was analyzed electronically using a 4-parameter logistic fit based on the Levenberg-Marquardt algorithm to generate IC50 values.

Experiment [2] concerns the target T1, human A2a adenosine receptor. Briefly: A2a binding affinity using radioligand binding, Method (A). To be noted: Method (A): [3H]SCH58261 filtration binding, membranes expressing human A2a. The essentials:
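Filtration binding used human A2a membranes from HEK293 or CHO cells, preincubated with compound 15–30 min. [3H]SCH58261 (diluted to 4 nM) was then added in Tris pH 7.4, MgCl2, Tween20 buffer, with 60 min at room temperature. Non-specific binding was defined by 1 μM ZM241385, and IC50 came from a 4-parameter logistic fit.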

Experiment [3] deals with T2, human A2b adenosine receptor (Homo sapiens, UniProt P29275).
T2 construct: purchased Perkin Elmer ES-013-C; host or cells: HEK293 cells recombinantly expressing the receptor; membranes made from them
T2 sequence (P29275 1-332): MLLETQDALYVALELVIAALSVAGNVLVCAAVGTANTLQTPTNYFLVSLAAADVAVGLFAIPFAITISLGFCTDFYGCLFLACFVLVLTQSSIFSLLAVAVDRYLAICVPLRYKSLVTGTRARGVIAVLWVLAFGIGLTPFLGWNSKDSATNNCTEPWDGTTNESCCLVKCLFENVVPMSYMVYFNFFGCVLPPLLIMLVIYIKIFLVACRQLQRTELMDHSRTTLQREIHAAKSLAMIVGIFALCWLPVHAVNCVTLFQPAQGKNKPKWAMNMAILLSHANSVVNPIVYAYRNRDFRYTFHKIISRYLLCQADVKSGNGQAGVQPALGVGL
Briefly: A2b binding affinity, radioligand filtration binding assay. To be noted: tritiated proprietary A2b antagonist, HEK293 membranes expressing human A2b. The essentials:
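Membranes from HEK293 cells expressing human A2b were preincubated with compound 15–30 min at room temperature, then incubated 60 min at room temperature with a tritiated proprietary A2b antagonist in PBS pH 7.4 without Mg/Ca. Non-specific binding defined with 20 μM NECA; filter-bound radioactivity counted and IC50 fitted by 4-parameter logistic.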

T1 sequence (P29274 whole entry): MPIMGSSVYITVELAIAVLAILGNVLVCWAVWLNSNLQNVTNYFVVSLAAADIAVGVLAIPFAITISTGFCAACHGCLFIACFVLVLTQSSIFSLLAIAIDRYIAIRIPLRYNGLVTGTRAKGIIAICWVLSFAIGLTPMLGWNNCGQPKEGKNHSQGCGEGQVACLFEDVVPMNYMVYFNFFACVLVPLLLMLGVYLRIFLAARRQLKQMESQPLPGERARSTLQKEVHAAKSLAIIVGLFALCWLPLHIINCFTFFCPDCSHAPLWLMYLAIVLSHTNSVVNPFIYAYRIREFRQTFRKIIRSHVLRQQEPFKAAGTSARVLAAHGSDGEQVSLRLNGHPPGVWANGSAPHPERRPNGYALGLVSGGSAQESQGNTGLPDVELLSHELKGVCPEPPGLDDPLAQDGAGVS

Turning to `C=C(C)c1c(-c2ccccc2)nc(N)n2nc([C@@H]3CCCN(CC(F)(F)F)C3)nc12` [Example 7.3, (R)-7-phenyl-8-(prop-1-en-2-yl)-2-(1-(2,2,2-trifluoroethyl)piperidin-3-yl)-[1,2,4]triazolo[1,5-c]pyrimidin-5-amine], the IC50 in experiment [1] was determined as 65.8 nM.
Take `Nc1nc(-c2ccccc2)cc2nc([C@@H]3CCCN(CC(F)F)C3)nn12` [Example 9.2, (R)-2-(1-(2,2-difluoroethyl)piperidin-3-yl)-7-phenyl-[1,2,4]triazolo[1,5-c]pyrimidin-5-amine]: in experiment [1], the IC50 amounted to 10.9 nM.
In turn, `Nc1nc(-c2ccccc2)c(C2CC2)c2nc([C@@H]3CCCN(CC(F)(F)F)C3)nn12` [Example 5.5, (R)-8-cyclopropyl-7-phenyl-2-(1-(2,2,2-trifluoroethyl)piperidin-3-yl)-[1,2,4]triazolo[1,5-c]pyrimidin-5-amine] came in with an IC50 in experiment [1] of 81.7 nM.
In experiment [1], `CC(C)(O)c1c(-c2ccccc2)nc(N)n2nc([C@@H]3CCCN(CC(F)(F)F)C3)nc12` [Example 6.5, (R)-2-(5-amino-7-phenyl-2-(1-(2,2,2-trifluoroethyl)piperidin-3-yl)-[1,2,4]triazolo[1,5-c]pyrimidin-8-yl)propan-2-ol] returned a concentration for half-maximal inhibition (IC50) of 1030 nM.
With `Cc1c(-c2ncco2)nc(N)c2nc([C@@H]3CCCN(c4cnn(C)c4)C3)nn12` (single isomer, unassigned) [Example 2.5-1], the IC50 was found to be 14.8 nM in experiment [2] and 770 nM in experiment [3].
For the compound `Cc1c(-c2ncco2)nc(N)c2nc(C3(c4ncccc4F)CC3)nn12` [Example 2.7, 2-(1-(3-fluoropyridin-2-yl)cyclopropyl)-5-methyl-6-(oxazol-2-yl)-[1,2,4]triazolo[1,5-a]pyrazin-8-amine], the IC50 in experiment [2] was 56.4 nM; in experiment [3], 2910 nM.
